The text below walks through data of US20200399238A1, “THERAPEUTIC AURONES” (MIDDLE TENNESSEE STATE UNIVERSITY, priority 2016, published 2020).

Read-outs that look alike come from different tables or passages of the source. A value given as a limit tells only on which side of the number the result lay.

For test [1], the system named is Trypanosoma brucei brucei 427 cells. The test can be described thus: T. brucei culture and assay (PrestoBlue). The class given is cell-based. The following applies: for IC50: Trypanosoma brucei.
Test [2] relates to Leishmania amazonensis promastigotes expressing beta-lactamase. In words: microbe, parasite or virus in culture. The class given is cell-based. Conditions: for IC50: read-out: IC50 L. amaz. The method, then:
Leishmania amazonensis promastigotes expressing beta-lactamase (Buckner et al., Am. J. Trop. Med. Hyg. 72 (2005) 600-605. doi:72/5/600 [pii]) were cultured in RPMI supplemented with 10% fetal calf serum and 1% pen-strep-glut solution (Sigma) at 27° C. Stationary phase promastigotes were adjusted in fresh media, treated with compounds, and incubated at 37° C. At 24 hours, 100 uL of cultures was added to 50 uL of the CellTiter Glo® solution. Luminescence readings were taken with a spectrophotometer and used to calculate inhibition.

Test [3] has as its system rat skeletal muscle cell line, L6. The test can be described thus: cells. The class given is cell-based. How it is done:
Cells were maintained in high glucose DMEM obtained from HyClone Laboratories (Logan, Utah) and supplemented with FCS and P/S at the same concentrations used for parasite culture. Cells were passaged every 3-4 days and maintained in a 37° C. humidified incubator in an atmosphere of 5% CO2. For assays. cells were detached, counted using a hemocytometer, and adjusted using fresh media to deliver 5×10^3 cells per well (90 μL) in black walled, flat clear bottom 96-well microtiter plates. After 3 h incubation for attachment, compounds diluted in culture medium were added (10 μL) to triplicate wells. Positive controls (cells treated with podophyllotoxin (Sigma, St. Louis, Mo.)), negative controls (untreated cells), solvent controls (DMSO) and media blanks were included on each plate. Following incubation for 71.5 h, 11 μL of PrestoBlue was added into each well.

The subject of test [4] is Trypanosoma cruzi Tulahuen cells expressing beta-galactosidase. In words: T. cruzi intracellular assay (beta-galactosidase, L6 host cells). Conditions: for IC50: Trypanosoma cruzi, TULAHUEN
Experimental: Trypanosoma cruzi Tulahuen cells expressing beta-galactosidase (Buckner et al., Antimicrob. Agents Chemother. 40 (1996) 2592-2597) were cultured using the L6 cell line as a host cell. Adherent L6 cultures were infected with freshly burst T. cruzi trypomastigotes. Approximately 4-6 days later freshly burst trypomastigotes were collected and used to maintain cultures For assays, trypomastigotes were centrifuged to a loose pellet and incubated for 3 hours to allow the trypomastigote forms to swim out of the pellet. Cells were adjusted for addition to intracellular or extracellular assays. […] For intracellular assays, cells were added to adherent L6 cells using an infection ratio of 1:1 and immediately treated with compounds. At 96 hours incubations, a solution containing chlorophenol-red-B-D-beta-galactopyranosidase (Sigma) and a lysis agent were added. After an additional 2 hour incubation, a spectrophotometer was used to quantify the resulting color change (or lack thereof) which was used to calculate inhibition.
The percentage of cell inhibition was calculated using the formula: Percent Inhibition=1−((Treated Sample value−Medium only value)/(Untreated value−Medium only value))×100. Results are expressed as the mean of two or more independent trials.
[5] abbreviates: Table 2, L6 IC50 / T. brucei IC50.
[6] abbreviates: Table 3C, estimated from highest L6 dose tested where L6 IC50 not reached.
The mark [7] stands for this setting: Table 1, mean of 2(+) independent trials, read-out: IC50 T. brucei.
Setting [8] is: Rattus norvegicus, Table 1, read-out: IC50 Toxicity (L6).
Setting [9] is: Table 2, L6 mammalian cells, read-out: IC50 Toxicity (L6).
[10] abbreviates: Table 1, intracellular T. cruzi IC50.
Where [11] appears, read: Table 2, L6 IC50 / T. cruzi IC50 (intracellular assay).
The mark [12] stands for this setting: read-out: IC50 T. cruzi, Table 1, intracellular assay, mean of 2(+) trials (^c one trial).
Where [13] appears, read: read-out: IC50 T. cruzi, Table 2, intracellular assay, mean of 2(+) independent trials.
The mark [14] stands for this setting: Rattus norvegicus, Table 3B, weighted means of two or more independent trials, read-out: IC50 L6.
Setting [15] is: read-out: IC50 TC-I, Table 3B, weighted means of two or more independent trials.
Setting [16] is: Table 3A, estimated from highest L6 dose tested where no L6 IC50.
The mark [17] stands for this setting: Rattus norvegicus, Table 3A, weighted means of two or more independent trials, read-out: IC50 L6.
Setting [18] is: read-out: IC50 TC-I, Table 3A, weighted means of two or more independent trials.

For orientation: IC50 means the concentration that gives 50% inhibition.

Turning to `O=C1/C(=C/c2ccc(/C=C3\Oc4ccccc4C3=O)cc2)Oc2ccccc21` [Aurone 6617, (2Z,2′Z)-2,2′-(1,4-phenylenebis(methanylylidene))bis(benzofuran-3(2H)-one)], the “Selectivity L6/Tb” value in test [1] (Table 1), in test [1] (setting [5]) and in test [1] (setting [6]) was greater than 11.31 in each case. The IC50 in test [1] (setting [7]) is 35.4 µM; in test [2] (Leishmania amazonensis), 3.62 µM; in test [3] (setting [8]), greater than 400 µM; in test [3] (Rattus norvegicus, Table 3C, weighted means of two or more independent trials, read-out: IC50 L6) it was greater than 400 µM; in test [3] (setting [9]), greater than 400 µM; in test [4] (setting [12]), 39.1 µM. In addition, the IC50 in test [4] (setting [13]) came to 39.1 µM; in test [4] (read-out: IC50 TC-I, Table 3C, intracellular T. cruzi, weighted means of two or more independent trials) it was 39.1 µM. Further, the “Selectivity L6/La” value is greater than 110.50 in test [2] (Table 1) and greater than 110.50 in test [2] (Table 2, L6 IC50 / L. amazonensis IC50). The “Selectivity L6/Tc” value in test [4] (setting [10]) and in test [4] (setting [11]) was greater than 10.22 each time. Further, the “Selectivity L6/TC-I” value in test [4] (setting [6]) is reported as greater than 10.22.

Regarding `O=C1/C(=C/c2ccc(Br)cc2)Oc2c1ccc(O)c2O` [Aurone 1005, (Z)-2-(4-bromobenzylidene)-6,7-dihydroxybenzofuran-3(2H)-one], the half-inhibitory concentration (IC50) in test [1] (setting [7]) is 48 µM; in test [2] (Leishmania amazonensis) it was 31.1 µM; in test [3] (setting [8]), greater than 100 µM; in test [4] (setting [12]) it was greater than 50 µM.

For the molecule `O=C1/C(=C/c2ccccc2Cl)Nc2ccccc21` [AA11], the half-maximal inhibitory concentration (IC50) was greater than 50 µM in test [1] (setting [7]); 1.86 µM in test [2] (Leishmania amazonensis); greater than 200 µM in test [3] (setting [8]); greater than 50 µM in test [4] (read-out: IC50 T. cruzi (footnote c: value obtained from one trial), Table 2, one trial); greater than 50 µM in test [4] (setting [12]).

For `Cc1ccc(/C=C2\Oc3ccccc3C2=O)o1` [Aurone 9251], the IC50 is 35.3 µM in test [1] (setting [7]); 2.36 µM in test [2] (Leishmania amazonensis); 85.5 µM in test [3] (setting [8]); 85.5 µM in test [3] (setting [14]); 3.57 µM in test [4] (setting [12]); 3.57 µM in test [4] (setting [15]).

As for `O=C1/C(=C/c2ccccc2)Nc2ccccc21` [AA8], the IC50 is 11.7 µM in test [1] (setting [7]); less than 1 µM in test [2] (Leishmania amazonensis); greater than 100 µM in test [3] (setting [8]); 16.8 µM in test [4] (setting [12]); 16.8 µM in test [4] (setting [13]).

Take `O=C1/C(=C/c2ccc(Br)cc2)Oc2ccccc21` [Aurone 2009]: the IC50 was 41.7 µM in test [1] (setting [7]), 10.3 µM in test [2] (Leishmania amazonensis), greater than 100 µM in test [3] (setting [8]) and 11.4 µM in test [4] (setting [12]).

For `O=C1/C(=C/c2cccs2)Oc2ccccc21` [Aurone 2004], the “activity against T. brucei” value in test [1] was “moderate activity”. Also, the IC50 is 41.8 µM in test [1] (setting [7]); less than 1 µM in test [2] (Leishmania amazonensis); greater than 100 µM in test [3] (setting [8]); greater than 100 µM in test [3] (setting [14]); 13.7 µM in test [4] (setting [12]); 13.7 µM in test [4] (setting [13]). For the same molecule, the IC50 in test [4] (setting [15]) and in test [4] (read-out: T. cruzi IC50 dose) was 13.7 µM each time.

In the case of `O=C1/C(=C/c2ccccc2)Oc2ccccc21` [Aurone 6615, (Z)-2-benzylidenebenzofuran-3(2H)-one], the “Selectivity L6/Tb” value in test [1] (Table 1), in test [1] (setting [5]) and in test [1] (setting [16]) was 8.22 each time. In addition, the IC50 in test [1] (setting [7]) amounted to 40.1 µM; in test [2] (Leishmania amazonensis) it was 4.13 µM; in test [3] (setting [8]) it was 329 µM; in test [3] (setting [17]) it was 329 µM; in test [4] (setting [12]), 15.8 µM; in test [4] (setting [13]), 15.8 µM. The IC50 in test [4] (setting [18]) was 15.8 µM. Further, in test [2] (Table 1), the “Selectivity L6/La” value came out at 79.77. In addition, the “Selectivity L6/Tc” value in test [4] (setting [10]) and in test [4] (setting [11]) was 20.88 throughout. In test [4] (setting [16]), the “Selectivity L6/TC-I” value was 20.88.

For the molecule `O=C1/C(=C/c2cccs2)Nc2ccccc21` [AA9], the IC50 in test [1] (setting [7]) was greater than 50 µM; in test [2] (Leishmania amazonensis) it was less than 1 µM; in test [3] (setting [8]), greater than 200 µM; in test [4] (setting [12]), greater than 50 µM; in test [4] (setting [13]) it was greater than 50 µM.

Take `N#Cc1ccc(/C=C2\Oc3ccccc3C2=O)cc1` [Aurone 2014]: the IC50 was 8.12 µM in test [1] (setting [7]); 10.7 µM in test [2] (Leishmania amazonensis); 239 µM in test [3] (setting [8]); 23.5 µM in test [4] (setting [12]); 23.5 µM in test [4] (setting [13]).

For the molecule `O=C1/C(=C/c2cccc(O)c2)Oc2ccccc21` [Aurone 9252, (Z)-2-(3-hydroxybenzylidene)benzofuran-3(2H)-one], the IC50 in test [1] (setting [7]) was 34.9 µM; in test [2] (Leishmania amazonensis), 1.52 µM; in test [3] (setting [8]), greater than 100 µM; in test [4] (setting [12]), 16.5 µM; in test [4] (setting [13]), 16.5 µM.

Take `O=C1/C(=C/c2ccncc2)Oc2ccccc21` [Aurone 2008]: the IC50 was greater than 50 µM in test [1] (setting [7]); 26.3 µM in test [2] (Leishmania amazonensis); 81.1 µM in test [3] (setting [8]); 81.1 µM in test [3] (setting [14]); 16.4 µM in test [4] (setting [12]); 16.4 µM in test [4] (setting [15]).

Take `O=C1/C(=C/c2ccc(F)cc2)Oc2ccccc21` [Aurone 9002, (Z)-2-(4-fluorobenzylidene)benzofuran-3(2H)-one]: the IC50 was greater than 50 µM in test [1] (setting [7]); 39.3 µM in test [2] (Leishmania amazonensis); greater than 100 µM in test [3] (setting [8]); greater than 100 µM in test [3] (setting [17]); 15.8 µM in test [4] (setting [12]); 15.8 µM in test [4] (setting [18]). Also, the “Selectivity L6/La” value in test [2] (Table 1) is recorded as greater than 2.54. In addition, the “Selectivity L6/Tc” value in test [4] (setting [10]) is on record as greater than 6.33. In test [4] (setting [16]), the “Selectivity L6/TC-I” value is given as greater than 6.33.

As to `O=C1/C(=C/c2c[nH]c3ccccc23)Oc2ccccc21` [Aurone 9062, (Z)-2-((1H-indol-3-yl)methylene)benzofuran-3(2H)-one], the IC50 came to 24.8 µM in test [1] (setting [7]); 1.66 µM in test [2] (Leishmania amazonensis); 64.7 µM in test [3] (setting [8]); 64.7 µM in test [3] (setting [14]); 8.53 µM in test [4] (setting [12]); 8.53 µM in test [4] (setting [13]). The IC50 in test [4] (setting [15]) is 8.53 µM; in test [4] (read-out: T. cruzi IC50 dose), less than 10 µM.

For the molecule `COc1ccc(/C=C2\Oc3cc(O)ccc3C2=O)cc1O` [Aurone 2911, (Z)-6-hydroxy-2-(3-hydroxy-4-methoxybenzylidene)benzofuran-3(2H)-one], the IC50 in test [1] (setting [7]) is greater than 50 µM; in test [2] (Leishmania amazonensis) it was 6.51 µM; in test [3] (setting [8]) it was 52.6 µM; in test [4] (setting [12]), greater than 50 µM; in test [4] (setting [13]), greater than 50 µM.

`O=C1/C(=C/c2ccc[nH]2)Oc2cc(O)ccc21` [Aurone 2906, (Z)-2-((1H-pyrrol-2-yl)methylene)-6-hydroxybenzofuran-3(2H)-one]: the IC50 is 34.6 µM in test [1] (setting [7]), 19.9 µM in test [2] (Leishmania amazonensis), greater than 100 µM in test [3] (setting [8]) and greater than 50 µM in test [4] (setting [12]).

Take `O=C1/C(=C/c2cnc[nH]2)Oc2ccccc21` [Aurone 6621, (Z)-2-((1H-imidazol-5-yl)methylene)benzofuran-3(2H)-one]: the “Selectivity L6/Tb” value in test [1] (Table 1) and in test [1] (setting [5]) was greater than 64.10 in each case. Besides, the IC50 is greater than 50 µM in test [1] (read-out: IC50 TB); 1.56 µM in test [1] (setting [7]); greater than 50 µM in test [2] (Leishmania amazonensis); greater than 50 µM in test [2] (Table 2, mean of 2(+) independent trials); greater than 100 µM in test [3] (setting [8]); greater than 100 µM in test [3] (setting [14]). Besides, the IC50 in test [3] (setting [9]) is greater than 100 µM; in test [4] (setting [12]), 18.3 µM; in test [4] (setting [13]), 18.3 µM; in test [4] (setting [15]) it was 18.3 µM. The “Selectivity L6/Tc” value in test [4] (setting [10]) and in test [4] (setting [11]) was greater than 5.45 in each case. In addition, the “Selectivity L6/Tc-I” value in test [4] (Table 3B, estimated from highest L6 dose tested where no L6 IC50) is recorded as greater than 5.45.

For the molecule `O=C1/C(=C/c2ccco2)Oc2ccccc21` [Aurone 2023], the IC50 is greater than 50 µM in test [1] (read-out: IC50 TB); greater than 50 µM in test [1] (setting [7]); greater than 50 µM in test [1] (read-out: T. brucei IC50 dose); less than 1 µM in test [2] (Leishmania amazonensis); greater than 100 µM in test [3] (setting [8]); greater than 100 µM in test [3] (setting [14]). Further, the IC50 in test [4] (setting [12]) is 6.97 µM; in test [4] (setting [13]) it was 6.97 µM; in test [4] (setting [15]) it was 6.97 µM; in test [4] (read-out: T. cruzi IC50 dose), less than 10 µM.
